One test concerns HEK293 cells. The test is described as follows: RSK signaling immunoblot in HEK293 cells. The class given is cell-based, human. The procedure: HEK293 cells (Invitrogen, R75007) were seeded at a density of 500,000 cells per well in six-well cell culture plates (Corning Incorporated Costar #3516) in Dulbecco’s modified Eagle medium (DMEM) high-glucose + GlutaMAX Supplement, pyruvate (Thermo Fisher Scientific, catalog no. 31966-021) containing penicillin G (100 U/ml), streptomycin (100 μg/ml), and 10% (v/v) FBS. Once attached, the next day, the media were changed to serum-free and the cells were starved for 16 hours followed by compound treatment with BAY-3827, BI-D1870 (MedChemExpress, #HY-10510) ± 10 μM MK-2206 dihydrochloride (MedChemExpress, #HY-10358) with 30 min incubation at 37°C followed by coincubation with […] (MedChemExpress, #HY-18739) or vehicle for additional 30 min with final assay DMSO concentration of 0.13%. All cell lines used here were tested monthly for mycoplasma and tested negative.
Following compound treatment, the cells were washed with room temperature PBS and lysed on ice with the addition of lysis buffer [50 mM tris-HCl (pH 7.5), 150 mM NaCl, 1 mM EDTA, 1 mM EGTA, 0.27 M sucrose, 1% w/v Triton X-100, 20 mM glycerol-2 phosphate disodium, 50 mM NaF, and 5 mM Na4P2O7.10 H2O] containing proteases and phosphatase inhibitors [0.5 mM phenylmethylsulfonyl fluoride (PMSF), 1 mM benzamidine HCl, leupeptin (1 μg/ml), pepstatin A (1 μg/ml), 1 μM microcystin-LR, 1 mM Na3VO4, and 1 mM DTT]. Lysates were centrifuged at 10,000g, 4°C for 10 min, and protein concentration of the supernatant was determined with the Pierce Bradford Protein Assay Kit (Thermo Fisher Scientific, #23200) and read on the Hidex Plate Reader (software version 0.5.64.0). Samples were prepared in Laemmli sample buffer (tris 200 mM, 8% SDS, EDTA 2 mM, and 40% glycerol) supplemented with 10% DTT and boiled for 5 min at 100°C. Ten micrograms of protein per sample was run on a Criterion tris-glycine polyacrylamide gel (Bio-Rad, #5678095) and transferred to a nitrocellulose membrane. For cell signaling experiments in HEK293 cells, the samples were run on a Criterion TGX stain-free precast gel (Bio-Rad, catalog no. 5678085) with transfer to a polyvinylidene difluoride membrane performed in Bio-Rad Criterion blotter (#1704071) using tris-glycine transfer buffer (Bio-Rad, #1610734) following the manufacturer’s instructions. The membranes were probed at 4°C overnight in a 4% BSA TBS-T solution containing 0.02% sodium azide with the following antibodies where appropriate: Phospho-ACC (Ser^79) (1:1000, Cell Signaling Technology, #3661S), ACC (C83B10) (1:1000, Cell Signaling Technology, #3676S), phospho-Raptor (Ser^792) (1:1000, Cell Signaling Technology, #2083S), Raptor (24C12) (1:1000, Cell Signaling Technology, #2280S), GSK3αβ (1:2000, Sigma-Aldrich, #04-903), phospho-GSK3αβ (Ser^21/9) (D17D2) (1:1000, Cell Signaling Technology, #8566S), ERK1/2 (137F5) (1:1000, Cell Signaling Technology, #4695), phospho-ERK1/2 (Thr^202/Tyr^204) (D13.14.4E) (1:1000, Cell Signaling Technology, #4370), phospho-AMPKα (Thr^172) (40H9) (1:1000, Cell Signaling Technology, #2535S), AMPKα (1:1000, Cell Signaling Technology, #2532S), anti–glyceraldehyde-3-phosphate dehydrogenase antibody (1:5000, Cell Signaling Technology, #G8795), and vinculin (1:1000, Cell Signaling Technology, #13901). Membranes were scanned using the Odyssey Fc LiCor system (exposure time, 30 s) with densitometry analysis performed using LiCor Image Studio Lite normalizing to control loading protein. Figures were made using GraphPad Prism v10.
In general terms: A western blot detects proteins with antibodies after separation by electrophoresis.

Test [1] concerns AMPK. Set-up: method as in PMID 29695504. The settings on record: 20 μM ATP; read-out: median inhibitory concentration (IC50); cited from earlier work.
The subject of the next test is RSK2. Also noted: method as in PMID 20439741. As to conditions: cited from earlier work.
For test [2], the system named is AMPK. Also noted: method as in PMID 20439741. As to conditions: cited from earlier work.
The test system of the next test is RSK1. Set-up: method as in PMID 20439741. As to conditions: cited from earlier work.
Another test relates to 119 kinases. Also noted: method as in PMID 21740966. The settings on record: of 119 kinases, 1 μM; cited from earlier work.
Test [3] deals with AMPKα1α2+/+ control primary hepatocytes. The test is described as follows: Lipogenesis assay ([14C]-acetate incorporation into fatty acids). Format: cell-based, mouse. The procedure:
(§1) Mouse hepatocytes were isolated by collagenase perfusion as previously described ([47]). Hepatocytes were seeded in medium Eagle-199 (MEM-199) (#41150, Thermo Fisher Scientific) containing penicillin G (100 U/ml), streptomycin (100 μg/ml), and 10% (v/v) fetal bovine serum (FBS). Hepatocytes were left for attachment (3 to 4 hours) and serum-starved overnight at 37°C with 5% CO2 in MEM-199 supplemented with penicillin G (100 U/ml), streptomycin (100 μg/ml), 10 nM insulin, and 100 nM dexamethasone. […] Cells were then harvested in 0.5 ml of phosphate-buffered saline (PBS), transferred into 1 ml of 40% KOH and 2 ml of methanol followed by 1-hour incubation at 80°C. Lipids were […] by acidifying the samples in 37% HCl and extracted with petroleum ether. Extracts were allowed to evaporate to dryness and then dissolved in Ultima Gold scintillation fluid for determination of [^14C]-acetate incorporation into lipids.

Test [4] relates to pSer79-ACC1 in U2OS cells. As to the kind of experiment: HTRF assay of Ser79-ACC1 phosphorylation in U2OS cells. Format: cell-based, human. As to conditions: 10 μM. As to the method:
(§2) Human osteosarcoma U2OS WT cells were obtained from John Rouse (MRC Protein Phosphorylation and Ubiquitylation Unit, University of Dundee) and were cultured in DMEM high glucose + GlutaMAX Supplement, pyruvate (Thermo Fisher Scientific, catalog no. 31966-021) containing penicillin G (100 U/ml), streptomycin (100 μg/ml), and 10% (v/v) FBS seeding with 50,000 cells per well in a 50-μl volume in culture 96-well cell culture plates (Corning Incorporated costar, #3599). The next day, the media were changed to 50 μl of serum-free media, and 50 μl of serum-free media containing BAY-3827 or BAY-974 was dispensed and left to incubate at 37°C for 30 min. […] HTRF assays using either phospho-Ser^79-ACC1 kit (Revvity, #64ACCPEG) or phospho-Thr^172-AMPK kit (Revvity, #64AMPKPEG) were performed in triplicate in HTRF 96-well low volume white plates (Revvity, #66PL96001) following manufacturer’s instructions. Sealed plates incubated overnight in darkness conditions were scanned at room temperature in Multimode Plate Reader EnVision (PerkinElmer) machine following HTRF setup recommendations for EnVision (Revvity), equipped with a top mirror LANCE/DELFIA single mirror (#412), a UV2 (TRF) 320 excitation filter (#111), emission filter APC 665 (#205), and second emission filter Europium 615 (#203), with a 2000-μs cycle and 60-μs delay, with the number of flashes set to 100 as well as for the 2nd detector. Results were viewed in EnVision Manager software (version 1.13.3009.1401) where 665/615 ratios were calculated, and data were normalized to control condition as %. All assay ratios between control lysate signal/nonspecific signal were greater than 2 as expected of a successful assay following the manufacturer’s instructions. Data were visualized in GraphPad Prism v10.

Test [5] has as its system AMPKα1α2−/− DKO primary hepatocytes. As to the kind of experiment: Lipogenesis assay ([14C]-acetate incorporation into fatty acids). The class given is cell-based, mouse. As to the method: as §1
Test [6] relates to pThr172-AMPKα in U2OS cells. The test is described as follows: HTRF assay of Thr172-AMPKα phosphorylation in U2OS cells. The class given is cell-based, human. As to conditions: 10 μM. The procedure:
as §2
Background: TR-FRET usually uses a lanthanide donor and a delayed reading to cut background.

Like-named read-outs stand apart in the source and are kept apart here.

As to `CC(C)CCN1c2nc(Nc3cc(F)c(O)c(F)c3)ncc2N(C)C(=O)C1C` (stereo not drawn) [BI-D1870], the “PMA-stimulated pGSK3αβ (surrogate of RSK activity)” value in the test on HEK293 cells (10 μM, in the presence of MK-2206 (10 μM)) is given as “inhibited to the same extent”. In addition, in the test on HEK293 cells (serum-starved HEK293, 1 and 10 μM), the ACC1 phosphorylation result is given as “no effect”.

Regarding `CNC(=O)c1ccccc1Oc1nc(Nc2cc(OC)c(OC)c(OC)c2)ncc1Br` [SBI-0206965], in the test on AMPK [1], the IC50 was 160 nM.

As for `NC1(c2ccc(-c3nc4ccn5c(=O)[nH]nc5c4cc3-c3ccccc3)cc2)CCC1` [MK-2206], in the test on HEK293 cells (10 μM), the “basal pGSK3αβ” value was “reduced”.

Turning to `Cc1nc(Nc2n[nH]c3c2CN(C(=O)N[C@H](CN(C)C)c2ccccc2)C3(C)C)c2sccc2n1` [PF-03758309], the IC50 with RSK2 was 2 nM; in the test on AMPK [2], 1 nM; with RSK1, 2 nM.

With `c1cc(-c2cnn3cc(-c4ccc(OCCN5CCCCC5)cc4)cnc23)ccn1` [compound C], the “number of kinases inhibited more potently than AMPK” value in the test with 119 kinases is given as 34. The “restoration of MK-8722–inhibited lipogenesis” value in test [3] (25 μM, + MK-8722 (10 μM)) is 10%. The IC50 in the test on AMPK [1] was […].

On to `CCCCCCCCCCCCCC(=O)O[C@@H]1[C@@H](C)[C@@]2(O)[C@@H](C=C(CO)C[C@]3(O)C(=O)C(C)=C[C@@H]23)[C@@H]2C(C)(C)[C@]12OC(C)=O` [PMA, phorbol 12-myristate 13-acetate], for which the “pERK1/2 and pGSK3αβ levels” value in the test on HEK293 cells (0.1 μM, MK-2206–treated conditions) is “robustly increased”.

`O[C@@H]1CO[C@H]2[C@@H]1OC[C@H]2Oc1nc2nc(-c3ccc(-c4ccccc4)cc3)c(Cl)cc2[nH]1` [MK-8722]: the pSer79-ACC1 versus vehicle result in test [4] is recorded as “significant increase”. The effect on lipogenesis entry in [5] was “no effect”. The molecule also came in with a suppression of lipogenesis in test [3] (compound alone, 10 μM) of more than 80%. The pThr172-AMPK versus vehicle entry in test [6] is recorded as “significant increase”.
